# Experimental data taken from patent publication US8834843B2, “Imaging method” (GE Healthcare Limited, priority 2007, dated 2014).
# Numbered stars: 1 amine (or outer) side, 2 acyl side, 3 side chain; on linkers, the order of the positions; unused ones are H or OH. Bridge positions count the residues as written; N and C are the ends. Side chains are listed from the residue outwards. Peptide text beside a SMILES is read from it. * marks the point of attachment. X3 = CC[N+]1=C(/C=C/C=C/C=C2/N(CCCCCC(=O)*)c3ccc4c(S(=O)(=O)O)cc(S(=O)(=O)O)cc4c3C2(C)C)C(C)(C)c2c1ccc1c(S(=O)(=O)O)cc(S(=O)(=O)O)cc21; X4 = CC1=[N+]([O-])[Tc]23(=[O])(=[O])[N](CCC(CCN*)CC[N]2C(C)(C)C(C)=[N+]3[O-])C1(C)C; Glutaryl = O=C(CCCC(=O)[*:2])[*:1]
# What was measured:
# EA-Hy926 membranes = test: Competitive binding assay with 125I-echistatin on EA-Hy926 membranes; design: species or system human
# Protocol: The inhibition constant of Compound 6 was measured using a previously-described membrane binding assay (Indrevoll et al, Bioorg & Med Chem Lett, 2006, 16, 6190-6193).
# In brief, membranes from the human endothelial adenocarcinoma cell line EA-Hy926 were prepared and the Kd calculated for the purified membrane fraction. A competitive binding assay was then established to measure inhibition constants for cold Compound 6. ^125I-echistatin was used as the labelled ligand and cold echistatin as a reference standard.
# A total of sixteen dilutions of cold test compound (either cold echistatin or cold Compound 6) were prepared and mixed with a combination of ^125I-echistatin and membrane prior to incubation for 1 hour at 37° C. Following several washes, the bound material was harvested on a filter using a Skatron micro harvester. The filterspots were finally excised and counted in a Packard γ-counter.
# The inhibition constants for Compound 3 and Compound 8 were determined using the method described in Example 1. FIG. 3 illustrates binding of ^125I-echistatin versus cold Compound 3, Compound 8 and echistatin on EA-Hy926 membranes.
# [1] = system: Activated human hepatic stellate cells, LX-2; test: Binding to activated human hepatic stellate cells LX-2
# Protocol: Activated human hepatic stellate cells, LX-2 (provided by Prof. Scott L. Friedman, Mount Sinai School of Medicine, New York), were cultured in 12-well plates (Nunc) to confluence in Dulbeccos Modified Eagels Medium containing 10% FBS, streptomycin and glutamine. The cells were washed twice in a cold buffer containing 50 mM Tris, pH 7.4, 150 mM NaCl, 5 mM MnCl2, 1 mM CaCl2 and 0.01% BSA. The cells were further incubated in the buffer containing a trace amount of labelled compound (either 0.1 nM ^125I Compound 6 or 0.1 nM ^125I-echistatin) together with various concentrations of cold compound for 60 min at 4° C. with shaking. Following incubation, the unbound material was removed by washing the cells 3 times with cold buffer. The cells were detached from the wells by adding 0.1M NaOH and transferred to a tube to be counted in a gamma-counter (Packard). FIG. 2 illustrates the observed activity values.
# [2] = system: fibrogenic livers in BDL model; test: Liver uptake in BDL vs sham rats at 15 days post-op, vs negative control; type: in vivo, rat; details: one hour post-injection
# Protocol: On the appropriate day post surgery BDL and sham animals were removed and put under isoflurane anaesthesia, then each animal was injected with 0.3 ml intravenously (i.v.) via tail vein (˜3MBq). At the appropriate time point post-injection of the test item, each animal was re-anaesthetised with isoflurane, sacrificed by cervical dislocation weighed and the weight recorded via a barcode scanning system. Each animal was dissected and the following organs and tissues were removed and counted using BASIL counter protocol 40 or manual counting:
# The BDL and sham animal models were set up as described in Example 3. At 15 days post-operatively, one of Compound 3, Compound 8 or a negative control was administered to each animal and liver uptake assessed as described in Example 3.
Compound,Binding to EA-Hy926 membranes (in words) (EA-Hy926 membranes),"Ki (EA-Hy926 membranes; cold compound vs 125I-echistatin, 1 hour at 37° C., read-out: Ki in the EA-Hy926 membrane assay) [nM]",Binding to activated human hepatic stellate cells (in words) [1],"EC50 ([1]; 0.1 nM 125I labelled compound plus cold compound, 60 min at 4° C., read-out: EC50 in the LX-2 cell assay) [nM]",Liver retention/uptake in BDL compared to sham animals (in words) [2]
N=C(N)NCCC[C@@H]1NC(=O)[C@@H]2CSSC[C@H](NC(=O)[C@H](CC(=O)O)NC(=O)CNC1=O)C(=O)N[C@@H](Cc1ccccc1)C(=O)N[C@H](C(=O)NCCOCCOCCOCCNC(=O)COCC(N)=O)CSCC(=O)N[C@@H](CCCCNC(=O)c1cccc([123I])c1)C(=O)N2 [Compound 6],binding specifically,~10,binding specifically,~1,
"CC[N+]1=C(/C=C/C=C/C=C2/N(CCCCCC(=O)NCCCC[C@@H]3NC(=O)CSC[C@@H](C(=O)NCC(=O)N[C@@H](CCCCNC(=O)CCCC(=O)NCCC4CC[N]5C(C)(C)C(C)=[N+]([O-])[Tc]56(=[O])(=[O])[N](CC4)C(C)(C)C(C)=[N+]6[O-])C(N)=O)NC(=O)[C@H](CCCNC(=N)N)NC(=O)[C@@H]4CSSC[C@H](NC3=O)C(=O)NCC(=O)N[C@@H](CC(=O)O)C(=O)N[C@@H](Cc3ccccc3)C(=O)N4)c3ccc4c(S(=O)(=O)O)cc(S(=O)(=O)O)cc4c3C2(C)C)C(C)(C)c2c1ccc1c(S(=O)(=O)O)cc(S(=O)(=O)O)cc21 (some centres unmarked) [negative control, reference compound] ({CH2CO}-K(X3)CGDFCRCGK([Glutaryl-X4])-NH2; disulfide 2-6; thioether N-8)",,,,,no significant difference
